Experimental data from patent US20060135403A1, “Therapeutic formulations for the treatment of beta-amyloid related diseases” (priority 2002, published 2006).
Where a name gives a salt, the structure may show the parent alone. Read-outs that look alike come from different tables or passages of the source.

Legend:
Aβ1-40 = molecular target: T1, Aβ1-40 (Homo sapiens, UniProt P05067); assay: Mass spectroscopy (MS) binding assay; parameters: key: “+++” indicates strong binding; “++” indicates moderate binding; “+” indicates weak binding; “−” indicates no detectable binding; settings: 200 μM test compound, 20 μM solubilized Aβ40, 20% ethanol, pH 7.4
T1 construct: 20 μM of solubilized Aβ40
Description: Test compounds were purchased from commercial sources or synthesized and screened by mass spectroscopy (“MS”) assays. The MS assay gives data on the ability of compounds to bind to an amyloid.
In the mass spectroscopy (“MS”) assay, samples were prepared as aqueous solutions containing 20% ethanol, 200 μM of a test compound and 20 μM of solubilized Aβ40. The pH value of each sample was adjusted to 7.4 (±0.2) by addition of 0.1% aqueous sodium hydroxide. The solutions were then analyzed by electrospray ionization mass spectroscopy using a Waters ZQ 4000 mass spectrometer. Samples were introduced by direct infusion at a flow-rate of […] within 2 hours after sample preparation. The source temperature was kept at 70° C. and the cone voltage was 20 V for all the analysis. Data were processed using Masslynx 3.5 software. The MS assay gives data on the ability of compounds to bind to Aβ, whereas the ThT, EM and CD assays give data on inhibition of fibrillogenesis. “+++” indicates strong binding; “++” indicates moderate binding; “+” indicates weak binding; “−” indicates no detectable binding; and entries left blank were not determined.

Aβ [1] = settings: cited from earlier work
Aβ [2] = settings: PDAPP, cited from earlier work
Aβ [3] = settings: cited from earlier work; remark: listed apart in the source
Target sequence in this assay (P05067 672-711 limits assumed): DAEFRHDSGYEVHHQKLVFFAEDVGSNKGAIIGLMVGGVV

Aβ [4] = molecular target: T2, Aβ (Homo sapiens, UniProt P05067); settings: TgAPPswe, IP; cited from earlier work
T2 construct: the amyloid-β peptide (Aβ), a 39-43 amino acid protein that is produced through cleavage of the β-amyloid precursor protein (APP); host or cells: brains of transgenic mice (PDAPP, Tg2576, Tg2576+PS1, TgCRND8, TgAPPswe)

Aβ [5] = settings: TgCRND8, IP; cited from earlier work

T1 sequence (P05067 672-711 limits assumed): as above

O=C(NCCCCS(=O)(=O)[O-])OCc1ccccc1.[Na+] [AD, N-benzyloxycarbonyl-4-amino-1-butanesulfonic acid sodium salt monohydrate]
MS Binding Aβ1-40 (Aβ1-40): +

O=S(=O)(O)CCCNCc1ccc2c(c1)OCO2 [AW, 3-[((1,3-benzodioxol-5-yl)methyl)amino]-1-propanesulfonic acid]
MS Binding Aβ1-40 (Aβ1-40): ++

O=S(=O)([O-])CCCNC(=S)NCc1ccccc1.[Na+] [AM, 3-{[(benzylamino)carbonothioyl]amino}-1-propanesulfonic acid sodium salt]
MS Binding Aβ1-40 (Aβ1-40): +

O=C(NCCCS(=O)(=O)[O-])NCc1ccccc1.[Na+] [AH, 3-{[(benzylamino)carbonyl]amino}-1-propanesulfonic acid, sodium salt]
MS Binding Aβ1-40 (Aβ1-40): +

K6Aβ1-30: Aβ peptide immunogen of Sigurdsson 2001
Change in Cerebral Levels: Amyloid Burden (Aβ [1]; Tg2576, SC): −85% | Change in Cerebral Levels: Aβ, total Aβ levels (Aβ [1]; Tg2576, SC): Total: −55%

CCCC(CO)NCCCS(=O)(=O)O (racemic) [CA, 3-[(dl)-1-hydroxy-2-pentyl]amino-1-propanesulfonic acid]
MS Binding Aβ1-40 (Aβ1-40): +++

O=S(=O)(O)CCCNC12CC3CC(CC(C3)C1)C2 [BW, 3-(1-adamantyl)amino-1-propanesulfonic acid]
MS Binding Aβ1-40 (Aβ1-40): +++

O=C(NCCCS(=O)(=O)[O-])OCc1ccccc1.[Na+] [AE, N-benzyloxycarbonyl-3-amino-1-propanesulfonic acid sodium salt monohydrate]
MS Binding Aβ1-40 (Aβ1-40): +

O=S(=O)([O-])CCCC[n+]1ccc(C2CC=CCC2)cc1 (centres unmarked) [T, 4-(4-cyclohex-3-enylpyridyl) butanesulfonic acid, inner salt]
MS Binding Aβ1-40 (Aβ1-40): +

NCCNS(=O)(=O)[O-].[Na+] [BI]
MS Binding Aβ1-40 (Aβ1-40): +

O=S(=O)(O)CCCN1CC=C(CCCc2ccccc2)CC1 [D, 4-(3-phenylpropyl)-1-sulfopropyl-2,3,6-tetrahydropyridine]
MS Binding Aβ1-40 (Aβ1-40): +

Aβ40: Aβ40 peptide given orally or nasally as immunogen (Weiner 2000)
Change in Cerebral Levels: Amyloid Burden (Aβ [2]; nasal): −60% | Change in Cerebral Levels: Aβ, total Aβ levels (Aβ [2]; nasal): Total: −50% | Change in Cerebral Levels: Amyloid Burden (Aβ [2]; oral): 0% | Change in Cerebral Levels: Aβ, total Aβ levels (Aβ [2]; oral): Total: 0%

O=S(=O)(O)CCCNC1CCCc2ccccc21 (centres unmarked) [BU, 3-(1,2,3,4-tetrahydro-1-naphthylamino)-1-propanesulfonic acid]
MS Binding Aβ1-40 (Aβ1-40): +++

Cholyl-LVFFA-OH
anti-fibrillogenic activity (Aβ [3]): can act as an anti-fibrillogenic agent

fAβ42: fibrillar Aβ42 used for active immunization
Change in Cerebral Levels: Aβ (Aβ [1]; Tg2576, IP, Aβ species not specified): −70% | Change in Cerebral Levels: Amyloid Burden (Aβ [1]; Tg2576, IP): −85% | Change in Cerebral Levels: Amyloid Burden (Aβ [1]; Tg2576, SC): −80% | Change in Cerebral Levels: Aβ, levels of Aβ40 (Aβ [4]): 40: +100%; | Change in Cerebral Levels: Aβ, levels of Aβ42 (Aβ [4]): 42: 0% | Change in Cerebral Levels: Amyloid Burden (Aβ [2]; IP): −95% | Change in Cerebral Levels: Aβ, total Aβ levels (Aβ [2]; IP): Total: −80% | Change in Cerebral Levels: Amyloid Burden (Aβ [5]): −50%

O=C(Cc1ccccc1)NCCCS(=O)(=O)[O-].[Na+] [AG, 3-[(phenylacetyl)amino]-1-propanesulfonic acid, sodium salt]
MS Binding Aβ1-40 (Aβ1-40): +

COc1cc(CNCCCS(=O)(=O)O)cc(OC)c1 [BA, 3-(3,5-dimethoxybenzylamino)-1-propanesulfonic acid]
MS Binding Aβ1-40 (Aβ1-40): +++

O=S(=O)(O)CCCNCc1ccc(O)c(O)c1 [BC, 3-(3,4-dihydroxybenzylamino)-1-propanesulfonic acid]
MS Binding Aβ1-40 (Aβ1-40): +

O=C(NCC(O)CS(=O)(=O)[O-])OCc1ccccc1.[Na+] (centres unmarked) [AC, N-benzyloxycarbonyl-3-amino-2-hydroxy-1-propanesulfonic acid sodium salt monohydrate]
MS Binding Aβ1-40 (Aβ1-40): +

NCCCCS(=O)(=O)O [CB, 4-amino-1-butanesulfonic acid]
MS Binding Aβ1-40 (Aβ1-40): ++

COc1ccc(CNCCCS(=O)(=O)O)cc1OC [AX, 3-(3,4-dimethoxybenzylamino)-1-propanesulfonic acid]
MS Binding Aβ1-40 (Aβ1-40): +++

COc1ccc(CNCCCS(=O)(=O)O)c(OC)c1 [BB, 3-(2,4-dimethoxybenzylamino)-1-propanesulfonic acid]
MS Binding Aβ1-40 (Aβ1-40): +++

CCNCCCS(=O)(=O)O [BV, 3-(ethylamino)-1-propanesulfonic acid]
MS Binding Aβ1-40 (Aβ1-40): +++

C[n+]1cccc(C(=O)NCCCS(=O)(=O)[O-])c1 [AN, 3-((N-methylnicotlnoyl)amino)-1-propanesulfonic acid, inner salt]
MS Binding Aβ1-40 (Aβ1-40): −

O=S(=O)(O)CCCNCCc1c[nH]c2ccccc12 [BT, 3-{[2-(3-indolyl)ethyl]-amino}-1-propanesulfonic acid]
MS Binding Aβ1-40 (Aβ1-40): +++

COc1cccc(CNCCCS(=O)(=O)O)c1OC [AZ, 3-(2,3-dimethoxybenzylamino)-1-propanesulfonic acid]
MS Binding Aβ1-40 (Aβ1-40): ++

O=S(=O)(O)CCCNC1C2CC3CC(C2)CC1C3 (centres unmarked) [BZ, 3-(2-adamantyl)amino-1-propanesulfonic acid]
MS Binding Aβ1-40 (Aβ1-40): +++

CC(C)(C)NCCCS(=O)(=O)O [BX, 3-(t-butyl)amino-1-propanesulfonic acid]
MS Binding Aβ1-40 (Aβ1-40): +++

COc1cc(CNCCCS(=O)(=O)O)cc(OC)c1OC [AY, 3-(3,4,5-trimethoxybenzylamino)-1-propanesulfonic acid]
MS Binding Aβ1-40 (Aβ1-40): ++

N=C(N)SCCCS(=O)(=O)O [CP, 3-(amidinothio)-1-propanesulfonic acid]
MS Binding Aβ1-40 (Aβ1-40): +

CC(C)Cc1ccc(C(C)C(=O)NCCCS(=O)(=O)[O-])cc1.[Na+] (centres unmarked) [AL, 3-{[2-(4-isobutylphenyl)propanoyl]amino}-1-propanesulfonic acid, sodium salt]
MS Binding Aβ1-40 (Aβ1-40): ++

O=C(NCCCS(=O)(=O)O)NC(c1ccccc1)c1ccccc1 [AF, 3-{[(benzhydrylamino)carbonyl]amino}-1-propanesulfanic acid]
MS Binding Aβ1-40 (Aβ1-40): +

O=S(=O)(O)CCCNC1CC2CCC1C2 (centres unmarked) [BY, 3-(2-norbornyl)amino-1-propanesulfonic acid]
MS Binding Aβ1-40 (Aβ1-40): +++
